Each molecule was assayed against ROCK2 (human) (UniProt O75116) (assay: Assessment of ROCK2 Kinase Activity).
ROCK2 (human), sequence (O75116 whole entry, looked up): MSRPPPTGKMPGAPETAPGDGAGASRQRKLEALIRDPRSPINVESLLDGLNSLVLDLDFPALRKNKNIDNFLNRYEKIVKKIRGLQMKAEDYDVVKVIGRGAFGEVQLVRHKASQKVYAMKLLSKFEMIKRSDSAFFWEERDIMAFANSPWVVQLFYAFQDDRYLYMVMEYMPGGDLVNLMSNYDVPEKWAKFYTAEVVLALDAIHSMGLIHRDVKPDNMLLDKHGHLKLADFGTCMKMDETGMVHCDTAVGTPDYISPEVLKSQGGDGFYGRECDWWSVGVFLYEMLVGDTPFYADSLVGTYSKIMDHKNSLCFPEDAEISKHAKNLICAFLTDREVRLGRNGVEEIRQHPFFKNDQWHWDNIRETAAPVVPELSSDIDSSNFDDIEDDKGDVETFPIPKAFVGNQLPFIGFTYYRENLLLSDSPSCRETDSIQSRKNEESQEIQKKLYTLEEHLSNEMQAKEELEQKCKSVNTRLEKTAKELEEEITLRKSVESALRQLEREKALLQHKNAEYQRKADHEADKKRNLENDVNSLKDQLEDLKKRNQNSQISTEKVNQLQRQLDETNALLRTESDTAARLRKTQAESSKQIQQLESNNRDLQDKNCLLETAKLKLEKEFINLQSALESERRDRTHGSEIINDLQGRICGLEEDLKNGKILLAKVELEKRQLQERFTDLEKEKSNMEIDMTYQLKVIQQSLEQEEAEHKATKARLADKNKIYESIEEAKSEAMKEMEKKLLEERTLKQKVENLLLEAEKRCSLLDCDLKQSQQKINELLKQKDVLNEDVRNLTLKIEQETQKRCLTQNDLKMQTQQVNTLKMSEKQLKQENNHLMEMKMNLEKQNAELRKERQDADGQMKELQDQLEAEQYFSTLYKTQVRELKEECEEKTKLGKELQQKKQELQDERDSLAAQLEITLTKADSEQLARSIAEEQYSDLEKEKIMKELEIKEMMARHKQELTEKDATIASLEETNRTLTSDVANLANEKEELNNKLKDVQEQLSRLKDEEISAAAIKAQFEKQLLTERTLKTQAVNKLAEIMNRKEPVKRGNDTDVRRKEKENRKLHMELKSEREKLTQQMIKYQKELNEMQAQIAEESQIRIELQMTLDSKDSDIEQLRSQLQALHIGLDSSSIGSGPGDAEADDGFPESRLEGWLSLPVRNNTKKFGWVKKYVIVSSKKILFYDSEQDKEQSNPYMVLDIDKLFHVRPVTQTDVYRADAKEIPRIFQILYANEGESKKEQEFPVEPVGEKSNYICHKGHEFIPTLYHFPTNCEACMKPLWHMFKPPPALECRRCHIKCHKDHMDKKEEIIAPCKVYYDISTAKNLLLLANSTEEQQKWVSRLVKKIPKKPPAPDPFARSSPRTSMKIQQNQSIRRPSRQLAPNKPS

Row | IC50 [µM] | SMILES
1 | 0.1 to 1 | COc1cccc(CNC(=O)c2[nH]c3cc(-c4cn[nH]c4)ccc3c2CN(C)Cc2ccccc2)c1
2 | < 0.1 | Cc1ccccc1CNC(=O)c1n[nH]c2cc(-c3cn[nH]c3)ccc12
3 | < 0.1 | COc1cccc(CN(CCN(C)C)C(=O)c2n[nH]c3cc(-c4cn[nH]c4)ccc23)c1
4 | < 0.1 | COc1cccc(CN(C)C(=O)c2cc3ccc(-c4cn[nH]c4)cc3[nH]2)c1
5 | 0.1 to 1 | COc1cccc(CNC(=O)c2c3ccc(-c4cn[nH]c4)cc3nn2CC2CC2)c1
6 | < 0.1 | COc1cccc(CNC(=O)c2cc3ccc(-c4cn[nH]c4)cc3n2CCCO)c1
7 | 0.1 to 1 | COc1cccc(CNC(=O)c2c3ccc(-c4ccnc(N)n4)cc3nn2CC2CC2)c1
8 | < 0.1 | COc1cccc(CNC(=O)c2cc3ccc(-c4cn[nH]c4)cc3[nH]2)c1
9 | < 0.1 | COc1cccc(CNC(=O)c2cc3ccc(-c4cn[nH]c4)nc3n2C)c1
10 | < 0.1 | COc1cccc(CN(C)C(=O)c2n[nH]c3cc(-c4cn[nH]c4)ccc23)c1
11 | < 0.1 | COc1cccc(CNC(=O)c2cn(C)c3cc(-c4cn[nH]c4)ccc23)c1
12 | < 0.1 | O=C(NCc1ccccc1)c1cnc2cc(-c3cn[nH]c3)ccn12
13 | 0.1 to 1 | COc1ccc2c(c1)CC(c1cc(=O)n3cc(-c4ccncc4)ccc3n1)CO2 (configuration not stated)
14 | 0.1 to 1 | COc1cccc(CNC(=O)c2cn3cc(-c4ccnc(N)n4)ccc3n2)c1
15 | < 0.1 | COc1cccc(CN(CCN(C)C)C(=O)c2cnc3cc(-c4cn[nH]c4)ccn23)c1
16 | < 0.1 | COc1cccc(CNC(=O)c2cc3ccc(-c4cn[nH]c4)nc3n2CCN2CCCC2)c1
17 | < 0.1 | COc1ccccc1CNC(=O)c1n[nH]c2cc(-c3cn[nH]c3)ccc12
18 | < 0.1 | COc1cccc(CNC(=O)c2cc3ccc(-c4cn[nH]c4)nc3[nH]2)c1
19 | < 0.1 | COc1cccc(CNC(=O)c2nn(C)c3cc(-c4cn[nH]c4)ccc23)c1
20 | < 0.1 | COc1cccc(CN(CCN2CCCC2)C(=O)c2cc3ccc(-c4cn[nH]c4)nc3[nH]2)c1
21 | < 0.1 | COc1cccc(CN(CCN(C)C)C(=O)c2cn3cc(-c4cn[nH]c4)ccc3n2)c1
22 | 0.1 to 1 | COc1cccc(CCNC(=O)c2cn(CCN(C)C)c3cc(-c4cn[nH]c4)ccc23)c1
23 | < 0.1 | COc1cccc(CNC(=O)c2nn(CCN(C)C)c3cc(-c4cn[nH]c4)ccc23)c1

Row | IC50 [µM] | SMILES
24 | < 0.1 | COc1cccc(CNC(=O)c2cc3ccc(-c4cn[nH]c4)nc3n2CCCO)c1
25 | < 0.1 | COc1cccc(CN(CCCN(C)C)C(=O)c2cn(C)c3cc(-c4cn[nH]c4)ccc23)c1
26 | < 0.1 | COc1cccc(CNC(=O)c2cnc3cc(-c4cn[nH]c4)ccn23)c1
27 | < 0.1 | COc1cccc(CN(CCN2CCCC2)C(=O)c2cc3ccc(-c4cn[nH]c4)cc3[nH]2)c1
28 | < 0.1 | COc1cccc(CN(CC2CC2)C(=O)c2n[nH]c3cc(-c4cn[nH]c4)ccc23)c1
29 | 0.1 to 1 | COc1ccc(CNC(=O)c2c[nH]c3cc(-c4cn[nH]c4)ccc23)cc1
30 | < 0.1 | COc1cccc(CNC(=O)c2[nH]c3cc(-c4cn[nH]c4)ccc3c2CN2CCN(C)CC2)c1
31 | < 0.1 | COc1cccc(CN(CCCN2CCN(C)CC2)C(=O)c2cc3ccc(-c4cn[nH]c4)nc3[nH]2)c1
32 | < 0.1 | COc1cccc(CNC(=O)c2c[nH]c3cc(-c4cn[nH]c4)ccc23)c1
33 | 0.1 to 1 | O=C(NCCc1cccnc1)c1c[nH]c2cc(-c3cn[nH]c3)ccc12
34 | < 0.1 | COc1ccc2c(c1)CC(c1cc(=O)n3cc(-c4cn[nH]c4)ccc3n1)CO2 (configuration not stated)
35 | < 0.1 | COc1cccc(CN(C)C(=O)c2cc3ccc(-c4cn[nH]c4)nc3[nH]2)c1
36 | < 0.1 | COc1cccc(CNC(=O)c2cc3ccc(-c4c[nH]nc4C)nc3[nH]2)c1
37 | < 0.1 | COc1cccc(CN(C(=O)c2cc3ccc(-c4cn[nH]c4)nc3[nH]2)C2CC2)c1
38 | 0.1 to 1 | COc1cccc(CNC(=O)c2cn(-c3cccc(C(F)(F)F)c3)c3cc(-c4cn[nH]c4)ccc23)c1
39 | < 0.1 | COc1cccc(CNC(=O)c2nn(CCN(C)C)c3cc(-c4ccncc4)ccc23)c1
40 | 0.1 to 1 | COc1cccc(CNC(=O)c2[nH]c3cc(-c4cn[nH]c4)ccc3c2CN2CCCC2c2ccccc2)c1 (configuration not stated)
41 | < 0.1 | COc1cccc(CNC(=O)c2n[nH]c3cc(-c4cn[nH]c4)ccc23)c1
42 | 0.1 to 1 | COc1cccc(CNC(=O)c2cn3cc(-c4cn[nH]c4)ccc3n2)c1
43 | < 0.1 | COc1cccc(CN(CCN(C)C)C(=O)c2cc3ccc(-c4cn[nH]c4)nc3[nH]2)c1
44 | < 0.1 | COc1cccc(CCNC(=O)c2n[nH]c3cc(-c4cn[nH]c4)ccc23)c1
45 | < 0.1 | O=C(NCC1CCCCC1)c1c[nH]c2cc(-c3cn[nH]c3)ccc12

Row | SMILES | IC50 [µM]
46 | COc1cccc(CNC(=O)c2nn(CC3CC3)c3cc(-c4ccnc(N)n4)ccc23)c1 | < 0.1
47 | COc1cccc([C@@H](C)NC(=O)c2cn(CCN3CCCC3)c3cc(-c4cn[nH]c4)ccc23)c1 | < 0.1
48 | COc1cccc(CNC(=O)c2cn(CCN3CCCC3)c3cc(-c4cn[nH]c4)ccc23)c1 | < 0.1
49 | CCCn1nc(C(=O)NCc2cccc(OC)c2)c2ccc(-c3cn[nH]c3)cc21 | < 0.1
50 | COc1ccccc1CNC(=O)c1cn(CCCO)c2cc(-c3cn[nH]c3)ccc12 | < 0.1
51 | COc1cccc(CN(CCN(C)C)C(=O)c2nn(CC3CC3)c3cc(-c4cn[nH]c4)ccc23)c1 | < 0.1
52 | COc1cccc(CN(C)C(=O)c2cn(CCCO)c3cc(-c4cn[nH]c4)ccc23)c1 | < 0.1

Source: the Kinase Knowledgebase extract (Sharma et al. 2016)
